Test system: PAO1 biofilm
Test: In vitro MBEC antibiofilm assay
Type: cell-based, P. aeruginosa
Conditions: 5-15 μg/mL colistin
Description: The pegs on lid of the MBEC Assay® were submerged into the bacterial suspension, with column 12 containing sterile LB broth as a negative control. The plate was incubated at 37° C. on a rotating gyrator for 24 h to form biofilm on the pegs. After 24 h, the peg lid was removed and transferred into another 96-well microtiter plate containing sterile water for 30 seconds before being transferred into a treatment plate. The peg lid in the treatment plate was incubated for 24 h at 37° C. on the rotating gyrator. In the first study, the effect of concentration variation of TOB in MO-LCNPs was determined. […] The respective controls included unloaded formulations MO-LCNP and […] at equivalent concentrations and 0.9% NaCl. […] In the second study, the difference in effect of MO- and […] compared to liposomes containing TOB was determined. […] The final concentration of MO and PHY was 0.25 mg/mL. Liposomes were prepared as described above. In the third study, TOB, AMI and GEN as unformulated solutions and loaded in MO-LCNPs were compared as treatments against PAO1 biofilms in the MBEC Assay®. The concentration of each antibiotic was 6 μg/mL. […] In all four different studies, the treatments were incubated with the PAO1 biofilm grown on the MBEC Assay® on a rotating plate at 37° C. After 24 h incubation, the peg lid was transferred to a fresh plate containing sterilized water to inhibit treatments. […]

Question: For Colistin sulfate salt, which “anti-biofilm effect compared to saline control” value is on record?
Answer: no anti-biofilm or antimicrobial effect

— US12569508B2, “Antimicrobial compositions and methods of use” (priority 2020, dated 2026)
